From patent publication US6881741B2 (ViroChem Pharma Inc., priority 2001, dated 2005) come the findings set out here.

Each structure is given as a SMILES string.

As usually defined, the IC50 is the point on the concentration scale where inhibition reaches its midpoint.

The target in this assay is recombinant HCV NS5B (HCV RNA-dependent RNA polymerase) (Hepatitis C virus genotype 1b, UniProt P26663). The assay is described as follows: biochemical. The conditions noted are these: related polymerase activity (Example 27 list); read-out: IC50.
recombinant HCV NS5B (HCV RNA-dependent RNA polymerase), sequence (P26663 2420-3010 limits assumed): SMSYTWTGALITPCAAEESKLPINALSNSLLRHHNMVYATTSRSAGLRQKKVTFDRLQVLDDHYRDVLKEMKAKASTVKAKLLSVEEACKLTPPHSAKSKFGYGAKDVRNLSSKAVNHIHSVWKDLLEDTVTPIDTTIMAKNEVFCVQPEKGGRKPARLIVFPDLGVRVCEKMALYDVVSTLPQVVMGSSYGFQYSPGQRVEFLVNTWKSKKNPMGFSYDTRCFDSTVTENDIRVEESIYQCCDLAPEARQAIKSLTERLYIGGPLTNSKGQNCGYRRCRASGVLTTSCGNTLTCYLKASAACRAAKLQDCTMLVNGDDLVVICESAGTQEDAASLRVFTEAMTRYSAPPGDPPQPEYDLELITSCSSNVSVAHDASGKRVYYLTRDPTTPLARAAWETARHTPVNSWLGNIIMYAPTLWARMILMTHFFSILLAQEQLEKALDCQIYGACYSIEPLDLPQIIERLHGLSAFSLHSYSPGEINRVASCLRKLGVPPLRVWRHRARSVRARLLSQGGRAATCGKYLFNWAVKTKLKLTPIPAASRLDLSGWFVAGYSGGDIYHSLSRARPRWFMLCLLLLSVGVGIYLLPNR

For `CC(C)N(C(=S)c1ccc(Cl)cc1Cl)c1cc(-c2ccccc2)sc1C(=O)O` [Compound 297, 3-[(2,4-DICHLORO-THIOBENZOYL)-ISOPROPYL-AMINO]-5-PHENYL-THIOPHENE-2-CARBOXYLIC ACID], the IC50 was less than 5 µM. In the case of `Cc1cc(C)c(S(=O)(=O)Nc2cc(-c3ccccc3)sc2C(=O)O)c(C)c1` [Compound 298, 5-PHENYL-3-(2,4,6-TRIMETHYL- BENZENESULFONYLAMINO)- THIOPHENE-2-CARBOXYLIC ACID] it was less than 5 µM; in that of `CC(C(=O)O)N(C(=O)c1ccc(Cl)cc1Cl)c1cc(-c2ccccc2)sc1C(=O)O` (stereo not drawn) [Compound 299, 3-[(1-CARBOXY-ETHYL)-(2,4-DICHLORO- BENZOYL)-AMINO]-5-PHENYL- THIOPHENE-2-CARBOXYLIC ACID], less than 5 µM. For the compound `CC(C)=CCN(C(=O)c1ccc(C)cc1)c1cc(-c2ccccc2)sc1C(=O)O` [Compound 300, 3-[(4-METHYL-BENZOYL)-(3-METHYL- BUT-ENYL)-AMINO]-5-PHENYL- THIOPHENE-2-CARBOXYLIC ACID], the IC50 lay within 5 to 20 µM. Take `Cc1ccc(C(=O)N(c2cc(-c3ccccc3)sc2C(=O)O)C(C)C)c(O)c1` [Compound 301, 3-[(2-HYDROXY-4-METHYL-BENZOYL)- ISOPROPYL-AMINO]-5-PHENYL- THIOPHENE-2-CARBOXYLIC ACID]: the IC50 was in the range of 5 to 20 µM.

For `Cc1ccc(C(=O)N(C)c2cc(-c3cccnc3)sc2C(=O)O)cc1` [Compound 302, 3-[METHYL-(4-METHYL-BENZOYL)- AMINO]-5-PYRIDIN-3-YL-THIOPHENE-2- CARBOXYLIC ACID], the IC50 was 5 to 20 µM.

Regarding `Cc1ccc(C(=O)N(c2cc(-c3cccc(C(F)(F)F)c3)sc2C(=O)O)C(C)C)cc1` [Compound 304, 3-[ISOPROPYL-(4-METHYL-BENZOYL)- AMINO]-5-(3-TRIFLUOROMETHYL- PHENYL)-THIOPHENE-2-CARBOXYLIC ACID], the IC50 was less than 5 µM. `Cc1ccc(C(=O)N(c2cc(-c3cccc(C)c3)sc2C(=O)O)C(C)C)cc1` [Compound 305, 3-[ISOPROPYL-(4-METHYL-BENZOYL)- AMINO]-5-M-TOLYL-THIOPHENE-2- CARBOXYLIC ACID]: the IC50 is less than 5 µM. The value for `CC(C)N(C(=O)c1ccc(Cl)cc1Br)c1cc(-c2ccccc2)sc1C(=O)O` [Compound 306, 3-[(2-BROMO-4-CHLORO-BENZOYL)- ISOPROPYL-AMINO]-5-PHENYL- THIOPHENE-2-CARBOXYLIC ACID] was less than 5 µM; that for `CC(C)N(C(=O)c1ccc(Cl)cc1F)c1cc(-c2ccccc2)sc1C(=O)O` [Compound 307, 3-[(4-CHLORO-2-FLUORO-BENZOYL)- ISOPROPYL-AMINO]-5-PHENYL- THIOPHENE-2-CARBOXYLIC ACID] was less than 5 µM. The value for `Cc1ccc(S(=O)(=O)Nc2c(C(=O)O)sc(-c3ccccc3)c2C)c(C)c1` [Compound 308, 3-(2,4-DIMETHYL- BENZENESULFONYLAMINO)-4-METHYL- 5-PHENYL-THIOPHENE-2-CARBOXYLIC ACID] was 5 to 20 µM. Consider `Cc1ccc(C(=O)N(c2cc(-c3ccccc3)sc2C(=O)O)C(C)C)c(Br)c1` [Compound 309, 3-[(2-BROMO-4-METHYL-BENZOYL)- ISOPROPYL-AMINO]-5-PHENYL- THIOPHENE-2-CARBOXYLIC ACID], for which the IC50 was less than 5 µM. In the case of `CC(C)N(C(=O)c1ccc(Cl)cc1I)c1cc(-c2ccccc2)sc1C(=O)O` [Compound 310, 3-[(4-CHLORO-2-IODO-BENZOYL)- ISOPROPYL-AMINO]-5-PHENYL- THIOPHENE-2-CARBOXYLIC ACID] it was less than 5 µM; in that of `CC(C)N(C(=O)c1ccc(C#N)cc1)c1cc(-c2ccccc2)sc1C(=O)O` [Compound 311, 3-[(4-CYANO-BENZOYL)-ISOPROPYL- AMINO]-5-PHENYL-THIOPHENE-2- CARBOXYLIC ACID], 5 to 20 µM. The value for `C=CCN(C(=O)c1ccc(C)cc1)c1cc(-c2ccc(/C=C/C(=O)O)cc2)sc1C(=O)O` [Compound 312, 3-[ALLYL-(4-METHYL-BENZOYL)-AMINO]- 5-[4-(2-CARBOXY-VINYL)-PHENYL]- THIOPHENE-2-CARBOXYLIC ACID] was less than 5 µM.
